In paper PMC5521769, “Identification of odorant binding proteins and chemosensory proteins in Microplitis mediator as well as functional characterization of chemosensory protein 3” (PLoS ONE, 2017):
Where two headings read alike, the source gives them in different places.

Columns and labels:
[1] = test system: MmedOBPs and MmedCSPs (MmdeOBP1–10, MmedCSP1); design: method as in PMID 20388293; conditions: MmdeOBP1–10 and MmedCSP1; ref [22], [23]; cited from earlier work
M. mediator = test system: M. mediator; design: method as in PMID 20388293; conditions: ref [22], [23]; cited from earlier work
recombinant MmedCSP3 = recombinant MmedCSP3 (Microplitis mediator, UniProt A0A219T7S8); assay: biochemical; assay type: binding
Chain of recombinant MmedCSP3 (A0A219T7S8 entry or part of it): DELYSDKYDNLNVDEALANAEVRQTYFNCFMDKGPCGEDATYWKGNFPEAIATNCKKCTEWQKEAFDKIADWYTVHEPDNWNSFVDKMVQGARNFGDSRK
Method: The bis-ANS and all compounds were dissolved in HPLC purity-grade methanol with a concentration of 1 mM.
The bound chemical was evaluated based on its fluorescence intensity with the assumption that the protein was 100% active with a stoichiometry of 1: 1 (protein: ligand) saturation. The binding curves were linearized using a Scatchard plot, and the dissociation constants of the competitors were calculated from the corresponding IC50 values based on the following equation: Ki = [IC50] / (1 + [bis-ANS] / Kbis-ANS), where [bis-ANS] is the free concentration of bis-ANS and Kbis-ANS is the dissociation constant of the complex protein / bis-ANS [33].

[2] = protein and bis-ANS at 2 μM, competitor 2–40 μM, 50 mM Tris-HCl pH 7.4, mean ± SD, text values are ranges over the named group, read-out: Ki, dissociation constant

SMILES: CCC/C=C/C=O [(E)-2-hexen-1-al]
- binding affinity to MmedOBPs and MmedCSPs [1]: no any binding affinity
- electrophysiological and behavioral responses of M. mediator (M. mediator): could elicit electrophysiological and behavioral responses

SMILES: CC/C=C\CCOC(C)=O [(Z)-3-hexenyl acetate]
- binding affinity to MmedOBPs and MmedCSPs [1]: no any binding affinity
- electrophysiological and behavioral responses of M. mediator (M. mediator): could elicit electrophysiological and behavioral responses

SMILES: CCCC(=O)OCC [Ethyl butyrate]
- Ki (recombinant MmedCSP3; [2]): 32.9 ± 7.43 µM

SMILES: COC(=O)c1ccccc1O [Methyl salicylate]
- Ki (recombinant MmedCSP3): 39.22 ± 0.25 µM

SMILES: CCCCCCCC/C=C\CCCCCCCC(=O)O [Octadecenoic acid]
- Ki (recombinant MmedCSP3; [2]): 18.2 ± 1.74 µM

SMILES: CCCCCCCCCCCCCCCC(=O)O [Palmitic acid]
- Ki (recombinant MmedCSP3): 22.2 ± 1.82 µM

SMILES: C=C/C=C(\C)CC/C=C(\C)CCC=C(C)C [TMTT, (3E, 7E)-4,8, 12-trimethyltrideca-1,3,7, 11-tetraene]
- Ki (recombinant MmedCSP3; [2]): 26.8 ± 1.27 µM

SMILES: O=S(=O)(O)c1cccc2c(-c3ccc(Nc4ccccc4)c4c(S(=O)(=O)O)cccc34)ccc(Nc3ccccc3)c12 [bis-ANS, 4, 4’-dianilino-1,1’-binaphthyl-5,5’-sulfonic acid, reference compound]
- Kd (recombinant MmedCSP3; 2 μM protein titrated with bis-ANS 2–16 μM, 50 mM Tris-HCl pH 7.4, read-out: dissociation constant of the MmedCSP3 / bis-ANS complexes): 1750 ± 420 nM

SMILES: CCCC/C=C\CCCCCCCCCCO [cis-11-hexadecanol]
- Ki (recombinant MmedCSP3; [2]): 17.6 ± 1.19 µM

SMILES: CCCC/C=C\CCCCCCCCCC=O [cis-11-hexadecenyl Aldehyde, cis-11-hexadecenyl aldehyde]
- Ki (recombinant MmedCSP3; [2]): 17.2 ± 1.67 µM

SMILES: CC/C=C/CCCCCCCCCCOC(C)=O [trans-11-tetradecenyl acetate]
- Ki (recombinant MmedCSP3; [2]): 18.8 ± 2.06 µM
